Assays:
[1] = molar heat capacity at constant pressure; xn = mol fraction of the nth substance listed; conditions: 101.33 kPa, Crystal, DSC
[2] = xn = mol fraction of the nth substance listed; conditions: 298 K, 101.33 kPa, Crystal, X-ray diffraction
[3] = molar heat capacity at constant pressure; conditions: 101.33 kPa, Crystal, DSC
[4] = 298 K; 101.33 kPa; Crystal; X-ray diffraction

O=P([O-])([O-])[O-].[La+3] [lanthanum orthophosphate] + O=P([O-])([O-])[O-].O=P([O-])([O-])[O-].[Sr+2].[Th+4]
[1], x1 = 1
Conditions	molar heat capacity at constant pressure [J/K/mol]
298 K	97.5
300 K	98
350 K	107.3
400 K	114.3
450 K	120
500 K	124.9
550 K	129.3
600 K	133.2
650 K	136.9
700 K	140.4
750 K	143.8
800 K	147.1

Conditions	mass density [kg/m3]
[2], x1 = 1	5063

O=P([O-])([O-])[O-].O=P([O-])([O-])[O-].[Sr+2].[Th+4] [strontium thorium(IV) phosphate]
[3]
Conditions	molar heat capacity at constant pressure [J/K/mol]
298 K	177.6
300 K	178.6
350 K	197.2
400 K	210.2
450 K	220
500 K	227.8
550 K	234.2
600 K	239.6
650 K	244.4
700 K	248.8
750 K	252.8
800 K	256.6

Conditions	mass density [kg/m3]
[4]	5619

O=P([O-])([O-])[O-].[La+3] [lanthanum orthophosphate]
[3]
Conditions	molar heat capacity at constant pressure [J/K/mol]
298 K	97.5
300 K	98
350 K	107.3
400 K	114.3
450 K	120
500 K	124.9
550 K	129.3
600 K	133.2
650 K	136.9
700 K	140.4
750 K	143.8
800 K	147.1

Conditions	mass density [kg/m3]
[4]	5063

[O-2].[O-2].[Zr+4] [zirconium oxide]
[3]
Conditions	molar heat capacity at constant pressure [J/K/mol]
313 K	56.9
323 K	57.7
333 K	58.6
343 K	59.3
353 K	60
363 K	60.7
373 K	61.4
383 K	61.9
393 K	62.5
403 K	63
413 K	63.6
423 K	64
433 K	64.5
443 K	64.9
453 K	65.4
463 K	65.8
473 K	66.2
483 K	66.6
493 K	66.9
503 K	67.3
513 K	67.6
523 K	68
533 K	68.3
543 K	68.6
553 K	68.9
563 K	69.2
573 K	69.5
583 K	69.8
593 K	70.1
603 K	70.4
613 K	70.6
623 K	70.9
633 K	71.2
643 K	71.4
653 K	71.7
663 K	71.9
673 K	72.2
683 K	72.4
693 K	72.7
703 K	72.9
713 K	73.1
723 K	73.4
733 K	73.6
743 K	73.8
753 K	74.1
763 K	74.3
773 K	74.5
783 K	74.7
793 K	74.9
800 K	75.1

O=P([O-])([O-])[O-].O=P([O-])([O-])[O-].[Sr+2].[Th+4] [strontium thorium(IV) phosphate] + O=P([O-])([O-])[O-].[La+3]
molar heat capacity at constant pressure [J/K/mol], [1]
Conditions	x2 = 0	x2 = 0.333	x2 = 0.571	x2 = 0.75	x2 = 0.889
298 K	177.6	172.2	148.6	130.3	117
300 K	178.6	172.9	149.2	130.6	117.4
350 K	197.2	186.9	158.5	139.5	127.5
400 K	210.2	197.9	166.3	146.8	135.2
450 K	220	207.2	173.1	153.1	141.5
500 K	227.8	215.5	179.1	158.8	147.1
550 K	234.2	223.2	184.8	164	152.1
600 K	239.6	230.4	190.3	169.1	156.8
650 K	244.4	237.2	195.5	173.9	161.1
700 K	248.8	243.9	200.6	178.6	165.3
750 K	252.8	250.2	205.6	183.3	169.3
800 K	256.6	256.6	210.6	187.8	173.2

[2]
Conditions	mass density [kg/m3]
x2 = 0	5619
x2 = 0.333	5505
x2 = 0.571	5395
x2 = 0.75	5295
x2 = 0.889	5203
